Values of other authors, collected in patent US20250212890A1, “COMBINATIONS OF AV3 MUTANT POLYPEPTIDES AND Bt TOXINS FOR PEST CONTROL” (Vestaron Corporation, priority 2022, published 2025).

Key:
[1] = test system: crustacean and insect sodium channels; settings: Moran et al., Toxicon 2009
[2] = test system: mammalian sodium channels; settings: Moran et al., Toxicon 2009

**Q.** For Av3, which “selectivity for crustacean and insect sodium channels” value [1] is on record?
**A.** The value was “high selectivity”.

**Q.** What about the “selectivity for mammalian sodium channels” value [2] of the same substance?
**A.** The value was “low selectivity”.
